Experimental data: ChEMBL document CHEMBL6103579, “Antiproliferative activity of selenium-enriched coumarin derivatives on the SK-N-SH neuroblastoma cell line: Mechanistic insights” (Eur J Med Chem, 2025)
Activity calls are given as the source filed them. No cut-off for these calls is given here.

Columns and labels:
[1] = Toxicity in female ICR mouse assessed as change in organ coefficient of heart at 10 mg/kg, ip […] (reference value: 0.006+/-0.002); format: organism-based; settings: in vivo
SK-N-SH [2] = test: Downregulation of caspase-9 expression in human SK-N-SH cells at 3 to 9 uM measured after 48 hrs by Western blot analysis; format: functional, cell-based; settings: dose 3-9 µM
SK-N-SH [3] = test: Downregulation of caspase-3 expression in human SK-N-SH cells at 3 to 9 uM measured after 48 hrs by Western blot analysis; format: functional, cell-based; settings: dose 3-9 µM
SK-N-SH [4] = test: Antiproliferative activity against human SK-N-SH cells assessed as reduction in cell proliferation incubated for 60 hrs by CCK-8 method; format: functional, cell-based; settings: dose 0.5-2 µM
SK-N-SH [5] = test: Antiproliferative activity against human SK-N-SH cells assessed as reduction in cell proliferation at 0.5 uM incubated for 60 hrs by CCK-8 method relative to control; format: functional; design: scale not given: the % may be the effect or the level left
N2a [6] = test: Antitumor activity against mouse N2a cells implanted in female ICR mouse model assessed as reduction in tumor weight at 10 mg/kg, ip measured upto 8 days (reference value: 0.9 +/-0.26 g); format: functional; settings: time <= 8 day
[7] = Drug localization in nucleus of human SK-N-SH cells assessed as increase in green fluorescence at 6 uM measured after 48 hrs by DAPI staining based fluorescence microscopic analysis; format: ADME, subcellular
Quadruplex DNA = test: Binding affinity to HRCC G4 DNA (mitochondrial DNA) (unknown origin) assessed as dissociation constant by SPR analysis; format: nucleic-acid assay
SK-N-SH [8] = test: (§1) Upregulation of E-cadherin expression in human SK-N-SH cells measured after 48 hrs by Western blot analysis relative to control; format: functional; settings: dose 3-9 µM
[9] = as §1; format: functional; settings: dose 3-9 µM, at 3 to 9 µM
SK-N-SH [10] = test: Upregulation of Bax/[…] ratio in human SK-N-SH cells at 3 to 9 uM measured after 48 hrs by Western blot analysis; format: functional, cell-based; settings: dose 3-9 µM
SK-N-SH [11] = test: Induction of apoptosis in human SK-N-SH cells assessed as increase in apoptotic cells measured after 48 hrs by FITC and PI staining based flow cytometry analysis; format: functional, cell-based; settings: dose 3-9 µM
SK-N-SH [12] = test: Downregulation of Bcl-2 expression in human SK-N-SH cells at 3 to 9 uM measured after 48 hrs by Western blot analysis; format: functional, cell-based; settings: dose 3-9 µM
SK-N-SH [13] = test: Antiproliferative activity against human SK-N-SH cells assessed as reduction in cell proliferation at 1 uM incubated for 60 hrs by CCK-8 method relative to control; format: functional; design: scale not given: the % may be the effect or the level left
[14] = Drug localization in cytoplasm of human SK-N-SH cells assessed as increase in green fluorescence at 6 uM measured after 48 hrs by DAPI staining based fluorescence microscopic analysis; format: ADME, subcellular
[15] = Toxicity in female ICR mouse assessed as histomorphological changes in spleen at 10 to 20 mg/kg, ip H and E staining based analysis; format: organism-based; settings: in vivo, dose 10-20 mg/kg
[16] = Downregulation of Beta-catenin expression in human SK-N-SH cells at 9 uM measured after 48 hrs by Western blot analysis relative to control; format: functional
[17] = Toxicity in female ICR mouse assessed as appearance of intact glomeruli in kidney at 10 to 20 mg/kg, ip H and E staining based analysis; format: organism-based; settings: in vivo, dose 10-20 mg/kg
SK-N-SH [18] = test: Induction of mitochondrial dysfunction in human SK-N-SH cells assessed as increase in intracellular green fluorescence intensity at 3 to 9 uM; format: functional, cell-based; settings: dose 3-9 µM
N2a [19] = test: Antiproliferative activity against mouse N2a cells assessed as inhibition of cell growth incubated for 60 hrs by CCK-8 method; format: functional, cell-based
[20] = Downregulation of Beta-catenin expression in human SK-N-SH cells at 6 uM measured after 48 hrs by Western blot analysis relative to control; format: functional
SK-N-SH [21] = test: Induction of mitochondrial dysfunction in human SK-N-SH cells assessed as appearance of ring like distribution at 6 uM measured upto 48 hrs; format: functional, cell-based
N2a [22] = test: Antitumor activity against mouse N2a cells implanted in female ICR mouse model assessed as tumor inhibition rate at 20 mg/kg, ip measured upto 8 days relative to control; format: functional; design: scale not given: the % may be the effect or the level left; settings: time <= 8 day
SK-N-SH [23] = test: Upregulation of cytochrome C level in human SK-N-SH cells at 6 uM measured after 48 hrs by immunofluorescence staining based microscopic analysis; format: functional, cell-based
N2a [24] = test: Antitumor activity against mouse N2a cells implanted in female ICR mouse model assessed as reduction in cell nuclear size at 10 to 20 mg/kg, ip by H and E staining based analysis; format: functional, organism-based; settings: dose 10-20 mg/kg
N2a [25] = test: Antitumor activity against mouse N2a cells implanted in female ICR mouse model assessed as tumor inhibition rate at 10 mg/kg, ip measured upto 8 days relative to control; format: functional; design: scale not given: the % may be the effect or the level left; settings: time <= 8 day
SK-N-SH [26] = test: Induction of mitochondrial dysfunction in human SK-N-SH cells assessed as increase in intracellular green fluorescence intensity at 6 uM; format: functional, cell-based; settings: time 2-48 hrs
[27] = Drug localization in mitochondria of living human SK-N-SH cells assessed as colocalization at 6 uM incubated for 48 hrs by DAPI staining based fluorescence microscopic analysis; format: ADME
N2a [28] = test: Antitumor activity against mouse N2a cells implanted in female ICR mouse model assessed as reduction in tumor weight at 20 mg/kg, ip measured upto 8 days (reference value: 0.9 +/-0.26 g); format: functional; settings: time <= 8 day
[29] = Toxicity in female ICR mouse assessed as change in organ coefficient of liver at 20 mg/kg, ip […] (reference value: 0.058+/-0.010); format: organism-based; settings: in vivo
[30] = Toxicity in female ICR mouse assessed as change in organ coefficient of heart at 20 mg/kg, ip […] (reference value: 0.006+/-0.002); format: organism-based; settings: in vivo
SK-N-SH [31] = test: Inhibition of cell invasion in human SK-N-SH cells at 0.5 to 2 uM measured after 48 hrs by crystal violet staining based microscopic analysis; format: functional; settings: dose 0.5-2 µM

In the case of N#C[Se]CCCOc1ccc2cc(C(=O)N3N=C(c4ccc(F)cc4)CC3c3ccc(F)cc3)c(=O)oc2c1 (configuration not stated), the Activity [1] is reported as 0.005, the Activity (SK-N-SH [2]) is reported as “Active” and the Activity (SK-N-SH [3]) is reported as “Active”. For the same compound, the Activity (SK-N-SH [4]) was “Dose-dependent-effect”, the Activity (SK-N-SH [5]) was 24.1% and the Activity (N2a [6]) was 0.19 g. For the same compound, the Drug uptake [7] was “Not_active”, the Kd (Quadruplex DNA) was 0.0142 µM and the Activity (SK-N-SH [8]) was “Dose-dependent-effect”. For the same compound, the Activity [9] was 32.3%, the Activity (SK-N-SH [10]) was “Active” and the Activity (SK-N-SH [11]) was “Dose-dependent-effect”. For the same compound, the Activity (SK-N-SH [12]) was “Active”, the Activity (SK-N-SH [13]) was 63.8% and the Drug uptake [14] was “Active”. The Activity [15] was “Non-toxic”, the Activity [16] was 42.2% and the Activity [17] was “Non-toxic”. The Activity (SK-N-SH [18]) was “Active”, the IC50 (N2a [19]) was 17.9 µM and the Activity [20] was 70.8%. The Activity (SK-N-SH [21]) was “Active”, the Activity (N2a [22]) was 93.3% and the Activity (SK-N-SH [23]) was “Active”. The Activity (N2a [24]) was “Active”, the Activity (N2a [25]) was 79.1% and the Activity (SK-N-SH [26]) was “Time-dependent-effect”. The Drug uptake [27] was “Active”, the Activity (N2a [28]) was 0.06 g and the Activity [29] was 0.059. The Activity [30] was 0.005 and the inhibition (SK-N-SH [31]) was “Active”.
